In patent US10022397B2, “Treatment of rheumatoid arthritis using noble gas mixtures” (Nobilis Therapeutics, Inc., priority 2016, dated 2018):

Tested on: patients with disease modifying antirheumatic drug (DMARD)-resistant Rheumatoid Arthritis (RA)
Method: 20 patients with disease modifying antirheumatic drug (DMARD)-resistant Rheumatoid Arthritis (RA) are chosen for a clinical trial assessing safety and efficacy of 25% Xenon administration with 75% air. A total of 10 liters of gas inhaled. Administration is performed 3 times per week.
Safety is determined by assessment of hematological biochemical, and coagulation parameters on baseline, and days 30, 60, and 90. Efficacy is assessed by CRP, ESR, anti-citrulline antibody, RF, Quality of Life Questionnaire, 28-joint disease activity score (DAS28), European League against Rheumatism (EULAR) response criteria and immunological parameters. […]
Safety will be assessed throughout the study with the use of direct evaluation and patient reporting during study visits or patient-initiated telephone contacts. The types, frequencies, severity, and duration of any reported adverse event or abnormalities in clinical laboratory values, physical examinations, vital signs, or special cardiovascular evaluations will be assessed. […]
To assess preliminary evidence of efficacy, the following assessments will be analyzed at following time points and compared to baseline values: […]
Quality of Life Assessment at 1, 2, and 3 Months Measured by: • Change in Rheumatoid Arthritis Quality of Life (RAQoL) questionnaire

[Xe] [Xenon, xenon]
clinical and immunological parameters of RA (25% Xenon with 75% air, 10 liters inhaled, 3 times per week, DAS28, EULAR, RF, ESR, CRP, anti-citrulline antibody, RAQoL at 1, 2 and 3 months vs baseline): reduction of clinical and immunological parameters of RA is noted in a statistically significant manner | treatment associated adverse events (human, in vivo): no significant treatment associated adverse events
